Columns and labels:
[1] = tested on: ENST1 (TaENST1-4A); design: species or system wheat cv. CM82036; conditions: in vivo
[2] = tested on: Arabidopsis root hair; assay: Root hair assay (apoptosis-like programmed cell death); assay type: cell-based, Arabidopsis thaliana; conditions: 65 μM SA, one day post treatment
Experimental: The root hair assay was conducted as previously described (Kacprzyk et al. 2014). Briefly, five days old seedling were treated with 65 μM SA solution and incubated at 22° C. in constant light until scoring. The Apostosis-Like Program Cell Death (AL-PCD) was assessed by scoring root hair viability with a fluorescein diacetate (FDA) staining and examination under the microscope of the emission of the fluorescein when excited at the wavelength 485 nm. Root hairs negative for FDA staining were examined further and scored as programmed cell death (PCD) when having a condensed cell content and protoplast retracted away from the cell wall (as opposed to necrotic cells which have no retracted cytoplasm and therefore no distinguishable morphology compared to living cells under the light microscope). The percentage for each category was calculated as a percentage of the total number of root hair scored (about 100) averaged over at least three replicates.

In the case of CC1=C[C@H]2O[C@@H]3[C@H](O)C[C@](C)([C@@]2(CO)[C@H](O)C1=O)[C@]31CO1 [DON, deoxynivalenol], the “ENST1 expression in tissues treated with the toxin” value [1] is reported as “high expression” and the “ENST1 induction by DON” value [1] is reported as 43 fold.

With O=C(O)c1ccccc1O [SA, salicylic acid] the “programmed cell death (PCD) in root hairs after SA treatment” value [2] was “significant inductions of PCD”.

From patent US10221427B2 (priority 2014, dated 2019)
